Experimental data: ChEMBL document CHEMBL1149976, “Novel, extended transition state mimic in HIV-1 protease inhibitors with peripheral C-2-symmetry” (Bioorg Med Chem Lett, 1994)
The source made the active and inactive calls. The rule behind the calls is not given here.

Columns and labels:
MT4 = experiment: Inhibition of HIV-1 induced cytopathic effect in HTLV1 transformed MT-4 cells.; assay type: functional; conditions: Homo sapiens, read-out: ED50 (the source's name)
[1] = biological target: Human immunodeficiency virus type 1 protease (Human immunodeficiency virus 1) (UniProt Q72874); experiment: Percentage inhibition against HIV-1 protease was determined at a concentration of 12.5 uM
[2] = biological target: Human immunodeficiency virus type 1 protease (Human immunodeficiency virus 1, UniProt Q72874); experiment: Binding affinity for HIV-1 protease
[3] = biological target: Human immunodeficiency virus type 1 protease (Human immunodeficiency virus 1) (UniProt Q72874); experiment: Binding affinity against HIV-1 protease was determined at a concentration 12.5 uM; not active
[4] = biological target: Human immunodeficiency virus type 1 protease (Human immunodeficiency virus 1) (UniProt Q72874); experiment: Binding affinity against HIV-1 protease was determined at a concentration of 12.5 uM; Not active

SMILES	EC50 (MT4) [nM]	inhibition [1] [%]	Ki [2] [nM]	inhibition [3]	inhibition [4]
CC(C)(C)[C@H](N)C(=O)N[C@@H](Cc1ccccc1)[C@H](O)[C@@H](CO)[C@H](Cc1ccccc1)NC(=O)[C@@H](N)C(C)(C)C	> 10000	8	–	–	–
CC(C)(C)[C@H](NC(=O)c1nc2ccccc2[nH]1)C(=O)N[C@@H](Cc1ccccc1)[C@@H](O)[C@H](CO)[C@H](Cc1ccccc1)NC(=O)[C@@H](NC(=O)c1nc2ccccc2[nH]1)C(C)(C)C	> 10000	31	–	–	–
COC(=O)[C@@H]([C@H](O)[C@H](Cc1ccccc1)NC(=O)[C@@H](NC(=O)OCc1ccccc1)C(C)C)[C@H](Cc1ccccc1)NC(=O)OC(C)(C)C	–	20	–	–	–
CC(C)C(NC(=O)OCc1ccccc1)C(=O)N[C@@H](Cc1ccccc1)[C@H](CO)[C@@H](O)[C@H](Cc1ccccc1)NC(=O)[C@@H](NC(=O)OCc1ccccc1)C(C)C (single isomer, unassigned; diastereomer B)	> 10000	–	510	–	–
CC(C)[C@H](NC(=O)OCc1ccccc1)C(=O)N[C@@H](Cc1ccccc1)[C@@H](O)[C@H](CO)[C@H](Cc1ccccc1)NC(=O)OC(C)(C)C	> 10000	–	290	–	–
CC(C)C(NC(=O)OCc1ccccc1)C(=O)N[C@@H](Cc1ccccc1)[C@@H](C(=O)O)[C@H](O)[C@H](Cc1ccccc1)NC(=O)[C@@H](NC(=O)OCc1ccccc1)C(C)C (stereo partly specified)	–	–	430	–	–
CC(C)[C@H](NC(=O)OCc1ccccc1)C(=O)N[C@@H](Cc1ccccc1)[C@H](O)[C@@H](C(=O)O)[C@H](Cc1ccccc1)NC(=O)OC(C)(C)C	–	–	–	inactive	–
CC(C)(C)C(NC(=O)OCc1ccccc1)C(=O)N[C@@H](Cc1ccccc1)[C@H](CO)[C@@H](O)[C@H](Cc1ccccc1)NC(=O)[C@@H](NC(=O)OCc1ccccc1)C(C)(C)C (single isomer, unassigned; diastereomer B)	> 10000	–	255	–	–
CC(C)(C)[C@H](NC(=O)OCc1nc2ccccc2[nH]1)C(=O)N[C@@H](Cc1ccccc1)[C@H](O)[C@@H](CO)[C@H](Cc1ccccc1)NC(=O)[C@@H](NC(=O)OCc1nc2ccccc2[nH]1)C(C)(C)C	4700	–	29	–	–
CC(C)[C@H](NC(=O)OCc1ccccc1)C(=O)N[C@@H](Cc1ccccc1)[C@@H](O)[C@H](CO)[C@H](Cc1ccccc1)NC(=O)[C@H](CC(N)=O)NC(=O)OCc1ccccc1	> 10000	–	340	–	–
CC(C)[C@H](NC(=O)OCc1ccccc1)C(=O)N[C@@H](Cc1ccccc1)[C@H](O)[C@@H](CO)[C@H](Cc1ccccc1)NC(=O)OC(C)(C)C	> 10000	–	3700	–	–
CC(C)[C@H](NC(=O)OCc1ccccc1)C(=O)N[C@@H](Cc1ccccc1)[C@@H](O)[C@H](CO)[C@H](Cc1ccccc1)NC(=O)C(NC(=O)OCc1ccccc1)C(C)(C)C (stereo partly specified)	2500	–	16	–	–
CC(C)(C)[C@H](NC(=O)OCc1nc2ccccc2[nH]1)C(=O)N[C@@H](Cc1ccccc1)[C@@H](O)[C@H](CO)[C@H](Cc1ccccc1)NC(=O)[C@@H](NC(=O)OCc1nc2ccccc2[nH]1)C(C)(C)C	500	–	13	–	–
CC(C)[C@H](NC(=O)OCc1ccccc1)C(=O)N[C@@H](Cc1ccccc1)[C@@H](O)[C@@H](CO)[C@H](Cc1ccccc1)NC(=O)[C@@H](CC(N)=O)NC(=O)OCc1ccccc1	> 10000	32	–	–	–
CC(C)C(NC(=O)OCc1ccccc1)C(=O)N[C@@H](Cc1ccccc1)[C@@H](CO)[C@H](O)[C@H](Cc1ccccc1)NC(=O)[C@@H](NC(=O)OCc1ccccc1)C(C)C (single isomer, unassigned; diastereomer A)	3700	–	27	–	–
CC(C)(C)[C@H](N)C(=O)N[C@@H](Cc1ccccc1)[C@@H](O)[C@H](CO)[C@H](Cc1ccccc1)NC(=O)[C@@H](N)C(C)(C)C	> 10000	22	–	–	–
CC(C)(C)C(NC(=O)OCc1ccccc1)C(=O)N[C@@H](Cc1ccccc1)[C@@H](CO)[C@H](O)[C@H](Cc1ccccc1)NC(=O)[C@@H](NC(=O)OCc1ccccc1)C(C)(C)C (single isomer, unassigned; diastereomer A)	1600	–	13	–	–
CC(C)(C)[C@H](NC(=O)CCc1nc2ccccc2[nH]1)C(=O)N[C@@H](Cc1ccccc1)[C@@H](O)[C@H](CO)[C@H](Cc1ccccc1)NC(=O)[C@@H](NC(=O)CCc1nc2ccccc2[nH]1)C(C)(C)C	520	–	9	–	–
CC(C)[C@H](NC(=O)OCc1ccccc1)C(=O)N[C@@H](Cc1ccccc1)[C@H](O)[C@@H](CO)[C@H](Cc1ccccc1)NC(=O)C(NC(=O)OCc1ccccc1)C(C)(C)C (single isomer, unassigned; diastereomer B)	> 10000	39	–	–	–
CC(C)(C)[C@H](NC(=O)CCc1nc2ccccc2[nH]1)C(=O)N[C@@H](Cc1ccccc1)[C@H](O)[C@@H](CO)[C@H](Cc1ccccc1)NC(=O)[C@@H](NC(=O)CCc1nc2ccccc2[nH]1)C(C)(C)C	> 10000	–	160	–	–
CC(C)[C@H](NC(=O)OCc1ccccc1)C(=O)N[C@@H](Cc1ccccc1)[C@@H](O)[C@H](C(=O)O)[C@H](Cc1ccccc1)NC(=O)OC(C)(C)C	–	18	–	–	–
COC(=O)[C@H]([C@@H](O)[C@H](Cc1ccccc1)NC(=O)[C@@H](NC(=O)OCc1ccccc1)C(C)C)[C@H](Cc1ccccc1)NC(=O)OC(C)(C)C	–	–	–	–	inactive
CC(C)(C)[C@H](NC(=O)c1nc2ccccc2[nH]1)C(=O)N[C@@H](Cc1ccccc1)[C@H](O)[C@@H](CO)[C@H](Cc1ccccc1)NC(=O)[C@@H](NC(=O)c1nc2ccccc2[nH]1)C(C)(C)C	> 10000	42	–	–	–
